Values of other authors, collected in US5420016A, “Test device and kit for detecting helicobacter pylori” (Serim Research Corporation, priority 1994, dated 1995).

Target: Urease from H. pylori (Helicobacter pylori, UniProt P69996)
Settings: read-out: Michaelis constant (urea); substrate urea; from Dunn, et al., J. Biol. Chem., 265:9464-9 (1990)

Urease from H. pylori, sequence (P69996 whole entry): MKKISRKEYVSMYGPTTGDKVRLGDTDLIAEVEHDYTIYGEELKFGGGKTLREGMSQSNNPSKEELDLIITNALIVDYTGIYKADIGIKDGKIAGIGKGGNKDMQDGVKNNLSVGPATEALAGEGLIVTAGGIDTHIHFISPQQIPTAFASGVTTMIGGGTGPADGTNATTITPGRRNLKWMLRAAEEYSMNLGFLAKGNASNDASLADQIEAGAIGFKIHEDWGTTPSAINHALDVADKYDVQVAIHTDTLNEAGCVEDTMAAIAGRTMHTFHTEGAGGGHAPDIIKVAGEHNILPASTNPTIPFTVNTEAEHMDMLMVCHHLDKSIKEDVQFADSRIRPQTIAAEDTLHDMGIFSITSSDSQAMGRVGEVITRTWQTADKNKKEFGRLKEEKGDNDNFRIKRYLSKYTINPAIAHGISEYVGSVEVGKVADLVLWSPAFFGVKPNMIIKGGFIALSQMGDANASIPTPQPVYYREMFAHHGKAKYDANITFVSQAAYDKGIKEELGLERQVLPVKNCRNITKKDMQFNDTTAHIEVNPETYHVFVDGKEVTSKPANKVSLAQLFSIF
Urease from H. pylori, sequence (P14916 whole entry, further chain): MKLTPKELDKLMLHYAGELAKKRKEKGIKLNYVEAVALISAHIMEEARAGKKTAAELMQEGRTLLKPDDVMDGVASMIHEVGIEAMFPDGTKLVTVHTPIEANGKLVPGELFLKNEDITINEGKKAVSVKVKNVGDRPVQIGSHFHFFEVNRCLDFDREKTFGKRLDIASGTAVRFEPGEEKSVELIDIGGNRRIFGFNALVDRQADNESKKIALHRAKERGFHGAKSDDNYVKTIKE

For `NC(N)=O` [urea], the Km is given as 300 µM.
